The source of these data is US8877757B2, “Pyrazine derivatives and use as PI3K inhibitors” (Merck Serono SA, priority 2005, dated 2014).

Assay [1] deals with Human recombinant GST-PI3δ (Homo sapiens (Human), UniProt O00329). Description: PI3K induced-lipid phosphorylation scintillation proximity assay (neomycin-coated SPA beads). Type of assay: biochemical. An excerpt:
The efficacy of compounds of the invention in inhibiting the PI3K induced-lipid phosphorylation may be tested in the following binding assay.
The assay combines the scintillation proximity assay technology (SPA, Amersham) with the capacity of neomycin (a polycationic antibiotic) to bind phospholipids with high affinity and specificity. The Scintillation Proximity Assay is based on the properties of weakly emitting isotopes (such as ^3H, ^125I, ^33P). Coating SPA beads with neomycin allows the detection of phosphorylated lipid substrates after incubation with recombinant PI3K and radioactive ATP in the same well, by capturing the radioactive phospholipids to the SPA beads through their specific binding to neomycin.
To a 96 wells MTP containing 10 μl of the test compound of Formula (I) (solubilized in 10% DMSO; to yield a concentration of 100, 25, 5.0, 1.25, 0.312, 0.078, 0.0195, 0.00488, 0.00122 and 0.0003 μM of the test compound), the following assay components are added: 1) 10 μl of lipid micelles 2) 20 μl of Kinase buffer ([^33P]γ-ATP 162 μM/300 nCi, MgCl2 2.5 mM, DTT 2.5 mM, Na3VO4 25 μM in Hepes 40 mM, pH 7.4) and 3) 10 μl (100 ng) of Human recombinant GST-PI3δ (in Hepes 40 mM, pH 7.4, ethylenglycol 4%). After incubation at room temperature for 120 minutes, with gentle agitation, the reaction is stopped by addition of 200 μl of a solution containing 250 μg of neomycin-coated PVT SPA beads, ATP 60 mM and EDTA 6.2 mM in PBS. The assay is further incubated at room temperature for 60 minutes with gentle agitation to allow binding of phospholipids to neomycin-SPA beads. After precipitation of the neomycin-coated PVT SPA beads for 5 minutes at 1500×g, radioactive PtdIns(3)P is quantified by scintillation counting in a Wallac MicroBeta™ plate counter.
The values indicated in Table I below refer to the IC50 (μM) with respect to PI3K, i.e. the amount necessary to achieve 50% inhibition of said target. Said values show a considerable inhibitory potency of pyrazine compounds with regard to PI3K.

The subject of assay [2] is Class I PI3-kinases. Conditions: Fruman et al., 1998; read-out: IC50 against each of the various Class I PI3-kinases; cited from earlier work.
Assay [3] deals with PKB/Akt phosphorylation in mast cells. The assay can be described thus: SCF-induced PKB/Akt phosphorylation in mast cells. The assay is classed as cell-based, mice. Conditions: Mast cell, 0.25 h; mast cells derived from mouse bone marrow, 20 ng/mL SCF for 15 minutes; read-out: IC50, inhibition of SCF-induced Akt Phosphorylation. Here is the method: Protocol: Primary bone marrow cells were isolated from 4-8 weeks old wild type mice and derived to mast cells by incubation with medium containing 20 ng/mL of stem cell factor (SCF) (PeproTech, Switzerland) and 20 ng/mL of IL-3 (PeproTech, Switzerland) for at least 4 weeks. Confirmation of the expression of mast cell specific surface markers was done by FACS analysis using antibodies against c-kit (cKit-PE mouse antibody; Pharmingen). Cells were maintained in culture in the presence of SCF and IL-3. To induce PKB/Akt phosphorylation, mast cells were resuspended at 2.5×10^6 cells/mL and starved in medium containing no SCF or IL-3 for 24 h. After preincubation with compounds or 1% DMSO for 20 minutes, cells were activated with 20 ng/mL of SCF for 15 minutes at 37° C., fixed in 1.5% paraformaldehyde for 20 minutes and permeabilised with 0.2% Triton X-100 for 10 minutes, at room temperature. PKB/Akt phosphorylation was visualized using phospho-Ser-473 specific Akt antibodies (Cell Signaling) and standard FACS protocols.

Assay [4] relates to Akt phosphorylation in B cells. The assay can be described thus: IgM-induced Akt phosphorylation in B cell (human PBMC, flow cytometry). The assay is classed as cell-based. The following applies: 5 min, CD19+ IgM+ B cells in human PBMC, anti IgM for 5 minutes, read-out: IC50, inhibition of IgM-induced Akt Phosphorylation. On the procedure: Human PBMC were prepared from a Buffy coat (Geneve Hospital) after a Ficoll gradient (FICOLL-PAQUE Plus PHARMACIA ref: 17-1440-03).
Cell concentration was adjusted to 10^6 cells per ml in RPMI (GIBCO Ref: 72400-21) without serum. Before stimulation, 90 μl of PBMC suspension was incubated with 10 μl of diluted compound in a 96 well round bottom plate for 20 minutes at 37° C.
For B cell activation, 30 μl of Fab′2 Goat anti IgM (Jackson Immuno-research) at 10 μg/ml was added to each well. After 5 minutes, cell activation was stopped with 4% paraformaldehyde (10 minutes at room temperature).
Fixed PBMC were then treated for 20 minutes with 0.15% Triton, washed twice with PBS and permeabilized with 50% methanol for 15 minutes.
PBMC were washed twice in PBS, resuspended in: PBS-4% FCS and incubated with anti P-Akt (1/100 dilution) for one hour at room temperature.
After one wash, PBMC were further stained for 30 minutes with a mixture of anti-CD19-PE (BD Biosciences), anti-IgM-FITC (BD Biosciences) and goat anti rabbit IgG-Alexa 647 (Molecular probe).
After washing, PBMC (Peripheral Blood Mononuclear Cells) were analysed on a FACSCalibur instrument (BD Biosciences) equipped with a 633 helium-neon laser, or stored at 4° C. for further analysis. 510^3 B cells events were gathered per sample in the CD19 positive region.
For the analysis, a threshold was applied on P-Akt histogram of CD 19+ IgM+ lymphocytes cells from the non-stimulated samples and the percentage of cells above this threshold was determined for each sample.

Assay [5] has as its system Female Balb/c mice. The assay can be described thus: Passive cutaneous anaphylaxis (PCA). The assay is classed as in vivo. Conditions: 30 mg/kg oral route, 2 hours before challenge. On the procedure: Female Balb/c mice (Elevage Janvier) (8 week old) were intradermally injected by anti-DNP IgE (50 ng in 20 μl, id, 2 sites of injection) on their shaved backs. Twenty four hours later they received an intravenous injection of DNP-human serum albumin (50 μg/mouse) and Evans blue (25 mg/kg) by retroorbital injection. Thirty minutes later, the animals were sacrificed. The skin of the back was removed. The extravasated dye (punch diameter: 5 mm) was extracted from 2 punches by 0.4 ml of formamide and was quantified by fluorescence (E1: 585 nm, E2: 660 nm).
Inhibitors are administered by oral route at the dose of 30 mg/kg 2 hours before the challenge of DNP-human serum albumin and Evans blue.

Human recombinant GST-PI3δ, sequence (O00329 whole entry): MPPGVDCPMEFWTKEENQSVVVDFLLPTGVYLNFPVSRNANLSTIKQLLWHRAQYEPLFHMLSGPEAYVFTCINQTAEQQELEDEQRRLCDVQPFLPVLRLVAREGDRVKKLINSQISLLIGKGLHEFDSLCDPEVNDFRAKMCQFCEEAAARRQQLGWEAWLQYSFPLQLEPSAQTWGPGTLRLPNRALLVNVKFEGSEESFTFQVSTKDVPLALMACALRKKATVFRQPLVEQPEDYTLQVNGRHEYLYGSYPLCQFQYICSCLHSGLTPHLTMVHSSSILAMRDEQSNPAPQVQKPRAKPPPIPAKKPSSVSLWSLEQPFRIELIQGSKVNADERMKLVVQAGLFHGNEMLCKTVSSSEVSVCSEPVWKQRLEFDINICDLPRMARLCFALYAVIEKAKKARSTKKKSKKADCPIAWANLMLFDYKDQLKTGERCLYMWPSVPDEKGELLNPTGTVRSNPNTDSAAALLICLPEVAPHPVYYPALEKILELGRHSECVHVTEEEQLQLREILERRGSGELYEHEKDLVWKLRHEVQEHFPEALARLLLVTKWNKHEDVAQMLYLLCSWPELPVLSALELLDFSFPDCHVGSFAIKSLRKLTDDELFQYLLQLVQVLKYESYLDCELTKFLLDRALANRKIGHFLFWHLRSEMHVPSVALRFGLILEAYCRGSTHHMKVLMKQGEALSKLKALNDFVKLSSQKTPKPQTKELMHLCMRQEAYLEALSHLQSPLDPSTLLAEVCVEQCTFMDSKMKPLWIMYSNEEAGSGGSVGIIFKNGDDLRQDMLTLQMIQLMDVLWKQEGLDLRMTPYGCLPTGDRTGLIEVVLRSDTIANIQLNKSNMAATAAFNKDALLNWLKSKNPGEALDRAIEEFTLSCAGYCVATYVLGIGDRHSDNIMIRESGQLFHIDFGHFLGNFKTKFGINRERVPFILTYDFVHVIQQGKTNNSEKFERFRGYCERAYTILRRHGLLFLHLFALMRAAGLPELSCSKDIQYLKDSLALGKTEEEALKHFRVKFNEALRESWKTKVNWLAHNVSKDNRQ

Consider `COc1cc(Nc2nc3ccccc3nc2NS(=O)(=O)c2cccc(C(=O)NCCCN(C)C)c2)cc(OC)c1` [Example 144, 3-[({3-[(3,5-dimethoxyphenyl)amino]quinoxalin-2-yl}amino)sulfonyl]-N-[3-(dimethylamino)propyl]benzamide], for which the IC50 in assay [1] was found to be 30 nM.

For the molecule `COC[C@H]1OC(=O)c2coc3c2[C@@]1(C)C1=C(C3=O)[C@@H]2CCC(=O)[C@@]2(C)C[C@H]1OC(C)=O` [Wortmannin], in assay [2], the 50% inhibitory concentration (IC50) is 1 to 10 nM.

As to `COc1cc(Nc2nc3ccccc3nc2NS(=O)(=O)c2ccc(CN(C)C)cc2)cc(OC)c1` [Example 138, N-{3-[(3,5-dimethoxyphenyl)amino]quinoxalin-2-yl}-4-[(dimethylamino)methyl]benzenesulfonamide], the half-maximal inhibitory concentration (IC50) in assay [3] turned out to be 180 nM; in assay [1], 27 nM; in assay [4], 16 nM.

Take `COc1ccc(OC)c(Nc2nc3ccccc3nc2NS(=O)(=O)c2ccc3c(c2)sc(=O)n3C)c1` [Example 29, N-{3-[(2,5-dimethoxyphenyl)amino]quinoxalin-2-yl}-3-methyl-2-oxo-2,3-dihydro-1,3-benzothiazole-6-sulfonamide]: the IC50 in assay [1] is 240 nM.

Regarding `COc1ccc(OC)c(Nc2nc3ncccc3nc2NS(=O)(=O)c2ccccc2)c1` [Example 86, N-{3-[(2,5-dimethoxyphenyl)amino]pyrido[2,3-b]pyrazin-2-yl}benzene sulfonamide], the IC50 in assay [1] worked out at 73 nM.

Take `COc1ccc(OC)c(Nc2nc3ccccc3nc2NS(=O)(=O)c2cn(C)cn2)c1` [Example 13, N-{3-[(2,5-dimethoxyphenyl)amino]quinoxalin-2-yl}-1-methyl-1H-imidazole-4-sulfonamide]: the IC50 is 80 nM in assay [1] and 30 nM in assay [4].

For the molecule `COc1ccc(OC)c(Nc2nc3ccccc3nc2NS(=O)(=O)c2cccc(C#N)c2)c1` [Example 11, 3-Cyano-N-{3-[(2,5-dimethoxyphenyl)amino]quinoxalin-2-yl}benzene sulfonamide], the IC50 in assay [1] is 430 nM.

Turning to `COc1ccc(OC)c(Nc2nc3ccccc3nc2NS(=O)(=O)c2cccnc2)c1` [Example 65, N-{3-[(2,5-dimethoxyphenyl)amino]quinoxalin-2-yl}pyridine-3-sulfonamide], the IC50 worked out at 1190 nM in assay [3], 56 nM in assay [1] and 21 nM in assay [4]. Besides, the “inhibition of vascular permeability” value in assay [5] is reported as 84%.
